# According to patent USRE48461E1, “Modulation of androgen receptor expression” (Ionis Pharmaceuticals, Inc., priority 2012, dated 2021):
# Experiments:
# LNCaP cells = assay: LNCaP cell proliferation, ASO in combination with MDV3100 (Example 20); type: cell-based, human; details: for Proliferation (% untreated control) in LNCaP without MDV-3100: 5 days
# Experimental: LNCaP cells were plated at 1,000 cells per well. […] ISIS 549148 was included as a negative control. […] After a treatment period of 5 days, the proliferative capacity of the cancer cells was measured with CellTiter 96® AQueous One or CellTiter-Glo® Solution Cell Proliferation kit (Promega), following the manufacturer's instructions. […]
# [1] = tested on: prostate-specific antigen (PSA) mRNA; assay: Time-course PSA expression in C4-2B cells; type: cell-based, human
# How it was run: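 C4-2B cells at 1,000/well in complete medium, treated with antisense oligonucleotide; ISIS 549148 as negative control. PSA and TMPRSS2 mRNA measured after 8, 24 and 48 h, given as percent inhibition relative to non-treated cells.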
# PSA mRNA = assay: PSA expression in VCaP cells; type: cell-based, human; details: RNAiMax, 48 hrs
# [2] = tested on: prostate-specific antigen (PSA) mRNA; assay: PSA mRNA levels in LMR20 cells; type: cell-based, human; details: with or without DHT/R1881
# Experimental: LMR20 cells were plated at 1,500 cells per well in phenol red-free medium with CSS. […] Results are presented in Tables 43-45 as mRNA levels expressed as a percentage of the baseline values. mRNA levels may be lowered or increased after treatment.
# MDA-MB-453 tumor = assay: Tumor volume in MDA-MB-453 breast cancer orthotopic model; type: in vivo, NSG mice; details: Study 2, MDA-MB-453 model, NSG mice, 50 mg/kg s.c. 5 days per week for 2 weeks
# TMPRSS2 mRNA = assay: TMPRSS2 expression in C4-2B cells (Example 30); type: cell-based, human; details: 48 hrs
# How it was run: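 C4-2B cells were plated at 1,000 cells per well in complete medium, or at 2,000 cells per well in CSS medium with 1 nM DHT. ISIS 549148 served as the negative control. AR, PSA and TMPRSS2 RNA levels were measured after 48 hrs.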
# 22RV1 cells = assay: 22RV1 apoptosis (Caspase-glo 3/7); type: cell-based, human; details: 72 hours; for Apoptosis (% untreated control): 22RV1 cells
# Experimental: After a treatment period of 72 hours in complete medium or CSS+DHT medium, apoptosis of the cancer cells was measured with Caspase-glo 3/7 assay kit (Promega). Results are presented in Tables 131 and 132 as percent apoptosis of the cells, relative to non-treated cells.
# AR mRNA = AR mRNA levels in LMR20 cells (with/without DHT or R1881); type: cell-based, human; details: with or without DHT/R1881
# Experimental: LMR20 cells were plated at 1,500 cells per well in phenol red-free medium with CSS.
sequence,measurement,setting,value
"TGATTTAATGGTTGCA [ISIS 569236] (cEt/MOE gapmer chemistry, further chemistry not given here) [targets intron 1]",Proliferation (% untreated control) in LNCaP with 0.08 μM MDV-3100,LNCaP cells; ASO dose 0.04 μM + 0.08 μM MDV-3100,74 % untreated control
same,Proliferation (% untreated control) in LNCaP with 0.4 μM MDV-3100,LNCaP cells; ASO dose 0.04 μM + 0.4 μM MDV-3100,48 % untreated control
same,Proliferation (% untreated control) in LNCaP with 2.0 μM MDV-3100,LNCaP cells; ASO dose 0.04 μM + 2.0 μM MDV-3100,41 % untreated control
same,Proliferation (% untreated control) in LNCaP with […] MDV-3100,LNCaP cells; ASO dose 0.04 μM + […] MDV-3100,92 % untreated control
same,Proliferation (% untreated control) in LNCaP without MDV-3100,LNCaP cells; ASO dose 0.04 μM,91 % untreated control
same,Proliferation (% untreated control) in LNCaP with 0.08 μM MDV-3100,LNCaP cells; ASO dose 0.08 μM + 0.08 μM MDV-3100,98 % untreated control
same,Proliferation (% untreated control) in LNCaP with 0.4 μM MDV-3100,LNCaP cells; ASO dose 0.08 μM + 0.4 μM MDV-3100,61 % untreated control
same,Proliferation (% untreated control) in LNCaP with 2.0 μM MDV-3100,LNCaP cells; ASO dose 0.08 μM + 2.0 μM MDV-3100,44 % untreated control
same,Proliferation (% untreated control) in LNCaP with […] MDV-3100,LNCaP cells; ASO dose 0.08 μM + […] MDV-3100,104 % untreated control
same,Proliferation (% untreated control) in LNCaP without MDV-3100,LNCaP cells; ASO dose 0.08 μM,106 % untreated control
same,Proliferation (% untreated control) in LNCaP with 0.08 μM MDV-3100,LNCaP cells; ASO dose 0.2 μM + 0.08 μM MDV-3100,51 % untreated control
same,Proliferation (% untreated control) in LNCaP with 0.4 μM MDV-3100,LNCaP cells; ASO dose 0.2 μM + 0.4 μM MDV-3100,41 % untreated control
same,Proliferation (% untreated control) in LNCaP with 2.0 μM MDV-3100,LNCaP cells; ASO dose 0.2 μM + 2.0 μM MDV-3100,35 % untreated control
same,Proliferation (% untreated control) in LNCaP with […] MDV-3100,LNCaP cells; ASO dose 0.2 μM + […] MDV-3100,58 % untreated control
same,Proliferation (% untreated control) in LNCaP without MDV-3100,LNCaP cells; ASO dose 0.2 μM,60 % untreated control
same,Proliferation (% untreated control) in LNCaP with 0.08 μM MDV-3100,LNCaP cells; ASO dose 1.0 μM + 0.08 μM MDV-3100,31 % untreated control
same,Proliferation (% untreated control) in LNCaP with 0.4 μM MDV-3100,LNCaP cells; ASO dose 1.0 μM + 0.4 μM MDV-3100,27 % untreated control
same,Proliferation (% untreated control) in LNCaP with 2.0 μM MDV-3100,LNCaP cells; ASO dose 1.0 μM + 2.0 μM MDV-3100,23 % untreated control
same,Proliferation (% untreated control) in LNCaP with […] MDV-3100,LNCaP cells; ASO dose 1.0 μM + […] MDV-3100,29 % untreated control
same,Proliferation (% untreated control) in LNCaP without MDV-3100,LNCaP cells; ASO dose 1.0 μM,35 % untreated control
same,synergy with MDV3100,LNCaP cells; LNCaP cells,synergistic with MDV3100
same,"cell proliferation inhibited, combination","LNCaP cells; LNCaP cells, 0.04 μM ASO in combination with 0.08 μM MDV3100",26%
same,"inhibited cell proliferation, ASO alone","LNCaP cells; LNCaP cells, ASO alone at 0.04 μM",9%
same,Percent inhibition of PSA expression compared to the control group in 8 hours,[1]; 0.04 μM,18%
same,Percent inhibition of PSA expression compared to the control group in 24 hours,[1]; 0.04 μM,10%
same,Percent inhibition of PSA expression compared to the control group in 48 hours,[1]; 0.04 μM,4%
same,Percent inhibition of PSA expression compared to the control group in 8 hours,[1]; 0.2 μM,3%
same,Percent inhibition of PSA expression compared to the control group in 24 hours,[1]; 0.2 μM,34%
same,Percent inhibition of PSA expression compared to the control group in 48 hours,[1]; 0.2 μM,45%
same,Percent inhibition of PSA expression compared to the control group in 8 hours,[1]; 1 μM,0%
same,Percent inhibition of PSA expression compared to the control group in 24 hours,[1]; 1 μM,44%
same,Percent inhibition of PSA expression compared to the control group in 48 hours,[1]; 1 μM,68%
same,Percent inhibition of PSA expression compared to the control group in 8 hours,[1]; 5.0 μM,0%
same,Percent inhibition of PSA expression compared to the control group in 24 hours,[1]; 5.0 μM,54%
same,Percent inhibition of PSA expression compared to the control group in 48 hours,[1]; 5.0 μM,76%
same,PSA expression,[1]; time course,reduced PSA and TMPRSS2 expression in the cells relative to the control set at the 24 hr and 48 hr time points
same,Percent inhibition of PSA expression,"PSA mRNA; CSS + DHT medium, 1.34 nM",8%
same,Percent inhibition of PSA expression,"PSA mRNA; CSS + DHT medium, 4.0 nM",25%
same,Percent inhibition of PSA expression,"PSA mRNA; CSS + DHT medium, 13.4 nM",62%
same,Percent inhibition of PSA expression,"PSA mRNA; CSS + DHT medium, 40 nM",74%
same,Percent inhibition of PSA expression,"PSA mRNA; complete medium, 1.34 nM",7%
same,Percent inhibition of PSA expression,"PSA mRNA; complete medium, 4.0 nM",19%
same,Percent inhibition of PSA expression,"PSA mRNA; complete medium, 13.4 nM",40%
same,Percent inhibition of PSA expression,"PSA mRNA; complete medium, 40 nM",52%
same,PSA mRNA levels in LMR20 cells,[2],reduced PSA levels and TMPRSS2 more extensively than the LNA gapmer ISIS 554221 or MDV3100
same,Tumor volumes,MDA-MB-453 tumor; Day 0,134
same,Tumor volumes,MDA-MB-453 tumor; Day 8,283
same,Tumor volumes,MDA-MB-453 tumor; Day 13,260
same,Tumor volumes,MDA-MB-453 tumor; Day 20,230
same,Tumor volumes,MDA-MB-453 tumor; Day 23,264
same,Tumor volumes,MDA-MB-453 tumor; Day 27,329
same,Tumor volumes,MDA-MB-453 tumor; Day 29,323
same,Percent inhibition of TMPRSS2 expression,"TMPRSS2 mRNA; CSS + DHT medium, 0.04 μM",0%
same,Percent inhibition of TMPRSS2 expression,"TMPRSS2 mRNA; CSS + DHT medium, 0.2 μM",6%
same,Percent inhibition of TMPRSS2 expression,"TMPRSS2 mRNA; CSS + DHT medium, 1 μM",43%
same,Percent inhibition of TMPRSS2 expression,"TMPRSS2 mRNA; CSS + DHT medium, 5.0 μM",59%
same,Percent inhibition of TMPRSS2 expression,"TMPRSS2 mRNA; complete medium, 0.04 μM",33%
same,Percent inhibition of TMPRSS2 expression,"TMPRSS2 mRNA; complete medium, 0.2 μM",59%
same,Percent inhibition of TMPRSS2 expression,"TMPRSS2 mRNA; complete medium, 1 μM",69%
same,Percent inhibition of TMPRSS2 expression,"TMPRSS2 mRNA; complete medium, 5.0 μM",73%
same,Apoptosis (% untreated control),"22RV1 cells; CSS + DHT medium, 1.34 nM",127 % untreated control
same,Apoptosis (% untreated control),"22RV1 cells; CSS + DHT medium, 4.0 nM",106 % untreated control
same,Apoptosis (% untreated control),"22RV1 cells; CSS + DHT medium, 13.4 nM",257 % untreated control
same,Apoptosis (% untreated control),"22RV1 cells; CSS + DHT medium, 40 nM",1136 % untreated control
same,Apoptosis (% untreated control),"22RV1 cells; complete medium, 1.34 nM",91 % untreated control
same,Apoptosis (% untreated control),"22RV1 cells; complete medium, 4.0 nM",141 % untreated control
same,Apoptosis (% untreated control),"22RV1 cells; complete medium, 13.4 nM",333 % untreated control
same,Apoptosis (% untreated control),"22RV1 cells; complete medium, 40 nM",1452 % untreated control
same,apoptosis of 22RV1 cells,22RV1 cells; complete or CSS+DHT medium,increased apoptosis of the cells in a dose dependent compared to the control
same,AR mRNA levels in LMR20 cells,AR mRNA,"reduced AR mRNA levels in LMR20 cells, treated with or without either AR agonist, in a dose dependent manner relative to the baseline"
